This passage reports IC50 results from patent US10160748B2 (AbbVie Inc., priority 2015, dated 2018).

The experiment concerns the target TNFα trimer (Homo sapiens, UniProt P01375). In words: TNFα FP Competitive Binding Assay. The settings on record: FP binding assay; 20 nM TNFα trimer, 1 nM OregonGreen488 probe; read-out: TNF IC50. How it is done: TNFα FP Competitive Binding Assay
• 1. Assay Buffer: Prepare 1× Assay Buffer (Water with 47 mM HEPES, 47 mM NaCl, 0.9 mM EDTA, 0.0071% Triton X-100) by adding 25 mL of 1 M HEPES, 5 mL of 5 M NaCl, 1 mL of 0.5 M EDTA, and 375 μL of a 10% Triton X-100 stock to a fresh 500 mL bottle of water. • 2. Assay Mixture: Prepare fresh Assay Mixture containing 20 nM TNFα trimer (60 nM protein) and 1 nM 2′,7′-difluoro-3′,6′-dihydroxy-N-(2-(2-(2-((4-(isoquinolin-8-yl)-3-(4-(isoquinolin-8-yl)phenethoxy)benzyl)oxy)ethoxy)ethoxy)ethyl)-3-oxo-3H-spiro[isobenzofuran-1,9′-xanthene]-5-carboxamide probe in 1× Assay Buffer. Compound Plate Preparation Manual 12-Point 1:3 Dilution Plates: (384 Well Polypropylene Plates)
Top concentration of compounds, 10 mM in DMSO, dispensed in rows A-O in columns 1 and 13. Compounds are serially diluted 1:3 with DMSO in columns 2-12 or 14-24 using a 16-channel Matrix pipettor. Plates stored at −20° C.
Discovery Preps 12-Point 1:3 Dilution Plates: (384 Well Assay Plates)
Top concentration, 5 mM in DMSO, of compounds placed in rows A-O in columns 1 and 13. Compounds are serially diluted 1:3 with DMSO in columns 2-12 or 14-24. Compound solutions are dispensed into replicate assay plates at 410 nL per well. Plates stored at 4° C.
TNFα FP Competitive Binding Assay Protocol
• 1. Compound plates warmed to rt. • 2. Fresh Assay Mixture is prepared. • 3. Assay Mixture (20 μL) is dispensed each well of 384 assay plates using a Thermo Multidrop Combi or 16-channel Matrix pipettor. If Manual 12-point 1:3 Dilution Plates are to be tested, Assay Mix is dispensed into empty plates. Discovery Preps 12-point 1:3 Dilution Plates already contain 410 nL compound solution in DMSO. • 4. For Manual 12-point 1:3 Dilution Plates, 0.7 μL is manually transferred using a 16-channel Matrix pipettor to replicate assay plates containing 20 μL Assay Mixture for a final top compound concentration of 338 μM (3.4% DMSO). • 5. For Discovery Preps 12-point 1:3 Dilution Plates, 20 μL Assay Mixture added the 410 nL compound solution already in the plates yields a final top compound concentration of 100 μM (2.0% DMSO). • 6. Background subtraction controls are wells P1-P8 containing only Assay Buffer. The low % inhibition controls are wells P9-P16 containing only Assay Mix. The high % inhibition are wells P17-P24 containing only 1 nM 2′,7′-difluoro-3′,6′-dihydroxy-N-(2-(2-(2-((4-(isoquinolin-8-yl)-3-(4-(isoquinolin-8-yl)phenethoxy)benzyl)oxy)ethoxy)ethoxy)ethyl)-3-oxo-3H-spiro[isobenzofuran-1,9′-xanthene]-5-carboxamide probe in 1× Assay Buffer. • 7. Plates are incubated at rt for 18-24 h in 37° C. incubator (CO2 is off). • 8. Prior to reading the assay, the plates are placed in a dark cabinet to equilibrate at rt for one hour. • 9. Background-subtracted fluorescence polarization (mP) is measured using a PerkinElmer Envision plate reader. • 10. Raw data is entered into Assay Explorer and dose-response curves are generated using a variable slope curve. Supplies, Materials, and Reagents

Sequence of TNFα trimer (P01375 77-233 limits assumed): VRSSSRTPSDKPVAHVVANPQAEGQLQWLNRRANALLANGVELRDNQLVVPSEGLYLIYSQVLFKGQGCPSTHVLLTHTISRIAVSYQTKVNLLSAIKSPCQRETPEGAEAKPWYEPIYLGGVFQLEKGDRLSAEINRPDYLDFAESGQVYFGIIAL

One may read the IC50 as the concentration that gives 50% inhibition. As for `COc1c(-c2cnc(N3CCN(C(=O)CO)[C@H](C)C3)nc2)ccc2c(=O)n(C)n(Cc3ccccc3OC(F)F)c12` [Example 70, (R)-1-(2-(Difluoromethoxy)benzyl)-6-(2-(4-(2-hydroxyacetyl)-3-methylpiperazin-1-yl)pyrimidin-5-yl)-7-methoxy-2-methyl-1H-indazol-3(2H)-one], the IC50 is < 1 µM.
As for `Cn1c(=O)c2ccc(-c3cnc(N4CCN5C(=O)NC[C@@H]5C4)nc3)cc2n1Cc1cc(Cn2cncn2)ccc1OC(F)F` [Example 113, (R)-7-(5-(1-(5-((1H-1,2,4-Triazol-1-yl)methyl)-2-(difluoromethoxy)benzyl)-2-methyl-3-oxo-2,3-dihydro-1H-indazol-6-yl)pyrimidin-2-yl)hexahydroimidazo[1,5-a]pyrazin-3(2H)-one], the figure is < 1 µM; as for `COCc1cccc(OC(F)F)c1Cn1c2cc(-c3cnc(N4CCN5C(=O)NC[C@@H]5C4)nc3)ccc2c(=O)n1C` [Example 33, (R)-7-(5-(1-(2-(Difluoromethoxy)-6-(methoxymethyl)benzyl)-2-methyl-3-oxo-2,3-dihydro-1H-indazol-6-yl)pyrimidin-2-yl)hexahydroimidazo[1,5-a]pyrazin-3(2H)-one], < 1 µM.
Take `Cc1cc2c(=O)n(C)n(Cc3ccccc3OC(F)F)c2cc1-c1cnc(N2CCNC(=O)C2)nc1` [Example 13.2]: the IC50 lay within 1 to 10 µM.
Regarding `CC(=O)N1CCN(c2ncc(-c3ccc4c(=O)n(C)n(Cc5c(CO)cccc5OC(F)F)c4c3)cn2)C[C@H]1C` [Example 48, (R)-6-(2-(4-Acetyl-3-methylpiperazin-1-yl)pyrimidin-5-yl)-1-(2-(difluoromethoxy)-6-(hydroxymethyl)benzyl)-2-methyl-1H-indazol-3(2H)-one], the IC50 was < 1 µM.
Turning to `Cn1c(=O)c2ccc(-c3cnc(N[C@@H]4CCOC4)nc3)cc2n1Cc1ccccc1OC(F)F` [Example 2.24], the IC50 fell in the range of 1 to 10 µM.
Take `Cn1c(=O)c2ccc(-c3ccc(N4CCNCC4)nc3)cc2n1Cc1ccccc1OC(F)F` [Example 14.1]: the IC50 fell in the range of 1 to 10 µM.
The same measure for `Cc1ccc(OC(F)F)c(Cn2c3cc(-c4cnn5c([C@H](C)O)cnc5c4)ccc3c(=O)n2C)c1` (single isomer, unassigned) [Example 108]: 1 to 10 µM; for `Cn1c(=O)c2ccc(-c3cnc(N4CCOCC4)nc3)cc2n1Cc1cc(F)ccc1OC(F)F` [Example 1.6]: 1 to 10 µM.
The same measure for `Cc1ccc(OC(F)F)c(Cn2c3cc(-c4cnc(N5CCN(C(=O)CC#N)[C@@H](C)C5)nc4)ccc3c(=O)n2C)c1` [Example 25.1]: < 1 µM.
Regarding `CC(=O)N1CCN(c2ncc(-c3ccc4c(=O)n(C)n(Cc5cc(CC#N)ccc5OC(F)F)c4c3)cn2)C[C@H]1C` [Example 27.3], the IC50 is < 1 µM.
As for `CC(c1ccccc1F)n1c2cc(-c3cnc(N4CCN(C(=O)CO)[C@H](C)C4)nc3)ccc2c(=O)n1C` (some centres unmarked) [Example 28.3], the figure is < 1 µM; as for `C[C@@H]1CN(c2ncc(-c3ccc4c(=O)n(C)n(Cc5ccccc5Cl)c4c3C#N)cn2)CCN1C(=O)CO` [Example 71, (R)-1-(2-Chlorobenzyl)-6-(2-(4-(2-hydroxyacetyl)-3-methylpiperazin-1-yl)pyrimidin-5-yl)-2-methyl-3-oxo-2,3-dihydro-1H-indazole-7-carbonitrile], 1 to 10 µM.
Consider `C[C@@H]1CN(c2ncc(-c3ccc4c(=O)n(C(F)F)n(Cc5ccccc5OC(F)F)c4c3)cn2)CCN1C(=O)CO` [Example 24.4], for which the IC50 was < 1 µM.
As for `Cn1c(=O)c2ccc(-c3cnc(C4(O)CN(C(=O)CO)C4)nc3)cc2n1Cc1ccccc1OC(F)F` [Example 91, 1-(2-(Difluoromethoxy)benzyl)-6-(2-(3-hydroxy-1-(2-hydroxyacetyl)azetidin-3-yl)pyrimidin-5-yl)-2-methyl-1H-indazol-3(2H)-one], the figure is 1 to 10 µM.
On to `Cn1c(=O)c2ccc(-c3cnc(N4CC(CO)C4)nc3)cc2n1Cc1ccccc1OC(F)F` [Example 2.11], for which the IC50 is 1 to 10 µM.
As for `C[C@@H]1CN(c2ncc(-c3ccc4c(=O)n(C)n(Cc5ccccc5OC(F)F)c4c3)cn2)CCN1C(=O)C(O)CN` (some centres unmarked) [Example 14.8], the IC50 is < 1 µM.
The same measure for `C[C@@H]1CN(c2ncc(-c3ccc4c(=O)n(C)n(Cc5ccccc5Cl)c4c3)cn2)CCN1C(=O)CO` [Example 24.8]: < 1 µM.
As for `CN1CCC(Nc2ccc(Cl)c(Cn3c4cc(-c5cnc(C(C)(C)O)nc5)ccc4c(=O)n3C)c2)C1=O` (centres unmarked) [Example 109, 1-(2-Chloro-5-((1-methyl-2-oxopyrrolidin-3-yl)amino)benzyl)-6-(2-(2-hydroxypropan-2-yl)pyrimidin-5-yl)-2-methyl-1H-indazol-3(2H)-one], the figure is 1 to 10 µM.
As for `Cc1ccc(OC(F)F)c(Cn2c3cc(-c4cnc(C(C)(C)CO)nc4)c(F)cc3c(=O)n2C)c1` [Example 17.4], the IC50 is < 1 µM.
In the case of `Cc1ccc(OC(F)F)c(Cn2c3cc(-c4cnc(N5CCN(C(=O)CO)C[C@H]5C)nc4)c(F)cc3c(=O)n2C)c1` [Example 17.3], the IC50 is < 1 µM.
As for `Cn1c(=O)c2ccc(-c3cnc(N4CCOCC4)nc3)cc2n1Cc1ccccc1` [Example 1.10], the figure is 1 to 10 µM.
As for `Cn1c(=O)c2ccc(-c3cnc(C(C)(C)O)nc3)cc2n1Cc1cc(Cc2ccn[nH]2)ccc1OC(F)F` [Example #133, 1-(5-((1H-Pyrazol-5-yl)methyl)-2-(difluoromethoxy)benzyl)-6-(2-(2-hydroxypropan-2-yl)pyrimidin-5-yl)-2-methyl-1H-indazol-3(2H)-one], the figure is < 1 µM; as for `Cc1ccnc(C(C)n2c3cc(-c4cnc(N5CCN(C(=O)CO)[C@H](C)C5)nc4)ccc3c(=O)n2C)c1` (some centres unmarked) [Example 24.10], 1 to 10 µM; as for `Cn1c(=O)c2ccc(-c3cnc(N4CCOCC4)nc3)cc2n1C(=O)c1ccccc1` [Example 1.8], > 10 µM.
As for `CCN(Cc1ccc(OC(F)F)c(Cn2c3cc(-c4cnc(N5CCN(C(C)=O)[C@H](C)C5)nc4)ccc3c(=O)n2C)c1)C(C)=O` [Example 94, (R)—N-(3-((6-(2-(4-Acetyl-3-methylpiperazin-1-yl)pyrimidin-5-yl)-2-methyl-3-oxo-2,3-dihydro-1H-indazol-1-yl)methyl)-4-(difluoromethoxy)benzyl)-N-ethylacetamide], the figure is 1 to 10 µM; as for `C[C@@H]1CN(c2ncc(-c3ccc4c(=O)n(C)n(Cc5ccccc5OC(F)F)c4c3)cn2)CCN1C(=O)CO` [Example 10.6, (R)-1-(2-(difluoromethoxy)benzyl)-6-(2-(4-(2-hydroxyacetyl)-3-methylpiperazin-1-yl)pyrimidin-5-yl)-2-methyl-1H-indazol-3(2H)-one], < 1 µM; as for `Cc1ccc(OC(F)F)c(Cn2c3cc(-c4cnc(N5CCN(C(=O)COP(=O)(O)O)[C@H](C)C5)nc4)ccc3c(=O)n2C)c1` [Example 69, (R)-2-(4-(5-(1-(2-(Difluoromethoxy)-5-methylbenzyl)-2-methyl-3-oxo-2,3-dihydro-1H-indazol-6-yl)pyrimidin-2-yl)-2-methyldihydrogen phosphate], < 1 µM.
As to `CC(=O)N1CCN(c2ncc(-c3ccc4c(=O)n(C)n(Cc5cc(C)ccc5OC(F)F)c4c3)cn2)C[C@@H]1CO` [Example 22.11], the IC50 was < 1 µM.
